Test results as given in article PMC7730182, “Synthesis and in Silico Modelling of the Potential Dual Mechanistic Activity of Small Cationic Peptides Potentiating the Antibiotic Novobiocin against Susceptible and Multi-Drug Resistant Escherichia coli” (International Journal of Molecular Sciences, 2020).
Where no end group is shown, it is not given here.

Tests used:
[1] = test system: susceptible E. coli 10418; assay: Norfloxacin potentiation assay (MIC of norfloxacin with fixed concentration of peptide or PAβN); assay type: cell-based, Escherichia coli; settings: broth microdilution, duplicate; for MIC of norfloxacin, E. coli 10418, +128 μg/mL of peptide: fixed 128 μg/mL peptide
Description: (§1) In order to gather more evidence on the potential mechanisms of action, the effects of the peptides in combination with the quinolone antibiotic norfloxacin were determined. Norfloxacin is active against Gram-negative bacteria, generally achieving entry via porin channels, but is also able to enter the bacterial cell via the membrane in porin-deficient mutants. Therefore, any membrane permeability mechanism would not be expected to have a significant effect on improving the activity of norfloxacin in porin-competent strains. This is indeed what was observed (Table S5), which added weight to our hypothesis that our very short peptides may be acting as membrane permeability enhancers for novobiocin.
(§2) The antibacterial activity of the peptides and peptide/antibiotic combinations were tested by the broth microdilution assay according to [24]. Escherichia coli NCTC 10,418 and Staphylococcus aureus NCTC 12,981 were obtained from the National Collection of Type Cultures, UK. Escherichia coli G69 was a clinical isolate as previously described.
(§3) Briefly, all bacterial strains were cultured on nutrient agar (Sigma-Aldrich, Gillingham, UK) plates and incubated for 24 h at 37 °C prior to MIC determination. In addition, known quantities of each test sample were dissolved in DMSO and then diluted in ISB (Iso- Sensitest Broth, Oxoid, Basingstoke, UK) to give a range concentration of 128–0 μg/mL, unless stated differently. […] Finally, the overnight cultures of each of the tested strains were suspended to an inoculum density of approximately 1.0 × 10^8 CFU/mL in phosphate buffered saline (PBS), consisting of 137 mM NaCl, 3 mM KCl, 8 mM Na2HPO4, and […] (Oxoid, Basingstoke, UK). The cell suspensions were standardized by adjusting the optical density to 0.1 at 600 nm (Thermo Scientific UV-Vis Spectrophotometer, Abingdon, UK) before being diluted 1:100 in ISB prior to inoculation […]
(§4) The assays were performed by microdilution using 96-well microtiter plates with a final inoculum of 5 × 10^5 CFU/mL and each sample was tested in duplicate in at least two independent experiments in order to confirm the reliability of the data. Results were determined by visual inspection of the wells and the presence of an evident opaque medium or white pellets were indicative of bacterial growth. The MIC values were recorded as the lowest concentration at which no bacterial growth was detected. […]
(§5) potentiating novobiocin. Assays were performed at fixed concentration of 128 μg/mL against susceptible E. coli 10418 and multidrug resistant clinical isolate E. coli G69. Potentiation assay for norfloxacin was also performed in presence of 64 μg/mL of RND efflux pump inhibitor PAβN. All tests were repeated in […]
(§6) Compound Sequence MIC of norfloxacin (μg/mL) […]
(§7) inhibitor PaβN but no potentiation was observed, so the assay was not repeated at lower concentrations.

[2] = test system: multidrug resistant clinical isolate E. coli G69; assay: as above; assay type: cell-based, Escherichia coli; settings: broth microdilution, duplicate; for MIC of norfloxacin, E. coli G69, +128 μg/mL of peptide: fixed 128 μg/mL peptide
Description: as §1, §2, §3, §4, §5, §6, §7

[3] = test system: Escherichia coli NCTC 10418; assay: microbe, parasite or virus in culture; assay type: cell-based; settings: for MIC: Escherichia coli, NCTC10418, compound alone, broth microdilution, Iso-Sensitest Broth, range 128–0 μg/mL, 5 × 10^5 CFU/mL, visual read-out, duplicate, read-out: MIC, E. coli NCTC 10418
Description: (§8) The Minimum Inhibitory Concentrations (MIC) of compounds 1–27 were evaluated through a broth microdilution assay against susceptible strains of Escherichia coli (Gram–negative) and Staphylococcus aureus (Gram-positive).
as §2
(§9) Briefly, all bacterial strains were cultured on nutrient agar (Sigma-Aldrich, Gillingham, UK) plates and incubated for 24 h at 37 °C prior to MIC determination. In addition, known quantities of each test sample were dissolved in DMSO and then diluted in ISB (Iso- Sensitest Broth, Oxoid, Basingstoke, UK) to give a range concentration of 128–0 μg/mL, unless stated differently. […] Finally, the overnight cultures of each of the tested strains were suspended to an inoculum density of approximately 1.0 × 10^8 CFU/mL in phosphate buffered saline (PBS), consisting of 137 mM NaCl, 3 mM KCl, 8 mM Na2HPO4, and […] (Oxoid, Basingstoke, UK). The cell suspensions were standardized by adjusting the optical density to 0.1 at 600 nm (Thermo Scientific UV-Vis Spectrophotometer, Abingdon, UK) before being diluted 1:100 in ISB prior to inoculation
(§10) The assays were performed by microdilution using 96-well microtiter plates with a final inoculum of 5 × 10^5 CFU/mL and each sample was tested in duplicate in at least two independent experiments in order to confirm the reliability of the data. Results were determined by visual inspection of the wells and the presence of an evident opaque medium or white pellets were indicative of bacterial growth. The MIC values were recorded as the lowest concentration at which no bacterial growth was detected.
(§11) Table S4. Minimum inhibitory concentration (MIC) of synthesised peptides and of reference antibiotics
(§12) novobiocin and norfloxacin.

[4] = test system: Staphylococcus aureus NCTC 12981; assay: microbe, parasite or virus in culture; assay type: cell-based; settings: for MIC: Staphylococcus aureus, NCTC12981, compound alone, broth microdilution, Iso-Sensitest Broth, range 128–0 μg/mL, 5 × 10^5 CFU/mL, visual read-out, duplicate, read-out: MIC, S. aureus NCTC 12981
Description: as §8, §2, §9, §10, §11, §12

[5] = test system: susceptible E. coli NCTC 10418; assay: Novobiocin potentiation assay (MIC of novobiocin with fixed concentration of peptide or PAβN); assay type: cell-based, Escherichia coli; set-up: key to MIC of Novobiocin, E. coli NCTC 10418, +128 μg/mL added peptide / MIC of Novobiocin, E. coli NCTC 10418, +32 μg/mL added peptide: Non potentiating (NP) indicated no reduction in the MIC of novobiocin was observed; settings: for MIC of Novobiocin, E. coli NCTC 10418, +128 μg/mL added peptide / MIC of Novobiocin, E. coli NCTC 10418, +32 μg/mL added peptide: Iso-Sensitest Broth, 5 × 10^5 CFU/mL, visual read-out; for MIC of Novobiocin, E. coli NCTC 10418, +128 μg/mL added peptide: fixed 128 μg/mL peptide; for MIC of Novobiocin, E. coli NCTC 10418, +32 μg/mL added peptide: fixed 32 μg/mL peptide
Description: (§13) The peptides were also tested in combination with antibiotics novobiocin and norfloxacin. Novobiocin has low efficacy against Gram-negative bacteria due to its hydrophobicity, giving limited cell permeability.
as §2, §9, §10

[6] = test system: multi-drug resistant clinical isolate E. coli G69; assay: as above; assay type: cell-based, Escherichia coli; set-up: key to MIC of Novobiocin, E. coli G69, +32 μg/mL added peptide / MIC of Novobiocin, E. coli G69, +128 μg/mL added peptide: Non potentiating (NP) indicated no reduction in the MIC of novobiocin was observed; settings: for MIC of Novobiocin, E. coli G69, +128 μg/mL added peptide / MIC of Novobiocin, E. coli G69, +32 μg/mL added peptide: Iso-Sensitest Broth, 5 × 10^5 CFU/mL, visual read-out; for MIC of Novobiocin, E. coli G69, +128 μg/mL added peptide: fixed 128 μg/mL peptide; for MIC of Novobiocin, E. coli G69, +32 μg/mL added peptide: fixed 32 μg/mL peptide
Description: as §13, §2, §9, §10

Compound	MIC of Novobiocin, E. coli NCTC 10418, +128 μg/mL added peptide ([5]; broth microdilution, duplicate)	MIC of norfloxacin, E. coli 10418, +128 μg/mL of peptide [1] [µg/mL]	MIC of norfloxacin, E. coli G69, +128 μg/mL of peptide [2] [µg/mL]	MIC of Novobiocin, E. coli G69, +128 μg/mL added peptide ([6]; broth microdilution, duplicate)	MIC of Novobiocin, E. coli NCTC 10418, +32 μg/mL added peptide ([5]; broth microdilution, duplicate) [µg/mL]	other results
CCn1cc(C(=O)O)c(=O)c2cc(F)c(N3CCNCC3)cc21 [Norfloxacin, reference compound]						MIC ([1]; Escherichia coli, E.COLI10418, norfloxacin alone): 0.062 µg/mL; MIC ([2]; Escherichia coli, norfloxacin alone): > 128 µg/mL; MIC [3]: 0.062 µg/mL; MIC [4]: 2 µg/mL
CO[C@@H]1[C@@H](OC(N)=O)[C@@H](O)[C@H](Oc2ccc3c(O)c(NC(=O)c4ccc(O)c(CC=C(C)C)c4)c(=O)oc3c2C)OC1(C)C [Novobiocin]						MIC ([5]; Escherichia coli, NCTC10418, novobiocin alone, no peptide, broth microdilution, duplicate): 32 µg/mL; MIC ([6]; Escherichia coli, novobiocin alone, no peptide, broth microdilution, duplicate): > 128 µg/mL; MIC [3]: 32 µg/mL; MIC [4]: 4 µg/mL
WKPLPPR [Compound 24, proline-rich cationic peptide WKPLPPR, amidated at the C-terminus]	NP	0.062	> 128	NP		potentiation of the MIC of novobiocin, result in words ([5]; added peptide, wording covers susceptible and multi-drug resistant strain): no synergism was observed
WKWKW [Compound 15, short cationic peptide WKWKW, amidated at the C-terminus]	4 µg/mL	0.125	> 128	8 µg/mL	8	potentiation of novobiocin against multi-drug resistant E. coli, result in words ([6]; E. coli G69, added peptide): restore the susceptibility; MIC of Novobiocin, E. coli G69, +32 μg/mL added peptide ([6]; broth microdilution, duplicate): 128 µg/mL
WRRQRW [Compound 20, short cationic peptide WRRQRW, C-terminal amide; commercial sample from ThermoFisher]	4 µg/mL	0.062	> 128	32 µg/mL	16	MIC of Novobiocin, E. coli G69, +32 μg/mL added peptide ([6]; broth microdilution, duplicate): NP
WRWR [Compound 4, short cationic peptide WRWR, amidated at the C-terminus]	2 µg/mL	0.062	> 128	NP	32	
WRWRW-NH2 [Compound 6]						MIC, E. coli NCTC 10418 ([3]; NCTC 10418, 24 h): 64 µg/mL; MIC, S. aureus NCTC 12981 ([4]; NCTC 12981, 24 h): 64 µg/mL
